Measured values from patent US5929079A, “Trans cyclopentanyl azaadenyl analogs useful as immunosuppressants” (Hoechst Marion Roussel, Inc., priority 1997, dated 1999).
Structures can show the parent of a compound that is named as a salt.

How the values were obtained:
[1] = system: endotoxin lethality in CF1 mice; experiment: Mouse endotoxin lethality model (D-galactosamine/LPS septic shock); assay type: in vivo; details: 100 mg/kg i.p., pretreated at t=-1 hr; death observed over 8-72 hours
Description: Using the method of Silverstein, (J. Exp. Med. 173, 357 (1991)) a mouse endotoxin lethality model may be used to determine if a compound of formula (1) has the ability to inhibit endotoxin-induced septic shock which is dependent on the production of Tumor Necrosis Factor-a (TNF-α). CF1 mice pretreated at time (t)=-1 hr with drug are challenged with 18 mg of D-glactoseamine and 50 ng of LPS, then observed for death over an 8-72 hour period.

[2] = system: macrophage antigen presentation to Lewis (LEW/N) rat T-cell hybridoma (Interleukin-2 production); experiment: Regulation of antigen presentation to rat T-cell hybridoma (Interleukin-2 production); assay type: cell-based
Description: Using the method of Ku (Cellular Immunology 130,(1990)), and a Lewis (LEW/N) rat T-cell hybridoma reactive with the protein methylated bovine serum albumin (mBSA), the ability of a compound of formula (1) to regulate M.phi. antigen presentation in vitro may be measured. Peritoneal macrophages obtained from LEW/N rats are plated into tissue culture and treated with 100 ug of mBSA and drug. A control is prepared similarly. After a period of 18 hours the cells are washed and incubated with the T-cell hybridoma for an additional 12 hours. Supernatants from these cultures are obtained and measured for content of Interleukin-2, a T-cell derived lymphokine which is roduced by activated T-cells. […] Rat macrophage antigen presentation and the subsequent production of Interleukin-2 are inhibited when rug is administered over a concentration range from 0.1 to 100 uM as illustrated in the following table.

## Nc1ncnc2c1ncn2[C@@H]1CC[C@@H](O)C1 [(1R,3R)-TRANS-1(9-ADENYL)CYCLOPENTAN-3-OL HYDROCHLORIDE]
[1]
  protection against endotoxin lethality: protects against endotoxin lethality
[2]; 0.1 to 100 uM
  Rat macrophage antigen presentation and subsequent production of Interleukin-2: inhibited
[2]; in vitro
  T-cell activation: inhibits T-cell ctivation
